{
  "source": "paper PMC8831520",
  "about": "“Small molecule SWELL1 complex induction improves glycemic control and nonalcoholic fatty liver disease in murine Type 2 diabetes” (Nature Communications, 2022)",
  "key": {"[1]": {"biological_target": "T1, ICl,SWELL (SWELL1-LRRC8 channel) in HEK-293 cells (Homo sapiens, UniProt Q8IWT6)", "T1 construct": "applied when the endogenous HEK-293 cell ICl,SWELL current density reached 30 pA/pF; endogenous in cells; host or cells: HEK-293 (ATCC, #CRL-1573)", "T1 sequence (Q8IWT6 1-810)": "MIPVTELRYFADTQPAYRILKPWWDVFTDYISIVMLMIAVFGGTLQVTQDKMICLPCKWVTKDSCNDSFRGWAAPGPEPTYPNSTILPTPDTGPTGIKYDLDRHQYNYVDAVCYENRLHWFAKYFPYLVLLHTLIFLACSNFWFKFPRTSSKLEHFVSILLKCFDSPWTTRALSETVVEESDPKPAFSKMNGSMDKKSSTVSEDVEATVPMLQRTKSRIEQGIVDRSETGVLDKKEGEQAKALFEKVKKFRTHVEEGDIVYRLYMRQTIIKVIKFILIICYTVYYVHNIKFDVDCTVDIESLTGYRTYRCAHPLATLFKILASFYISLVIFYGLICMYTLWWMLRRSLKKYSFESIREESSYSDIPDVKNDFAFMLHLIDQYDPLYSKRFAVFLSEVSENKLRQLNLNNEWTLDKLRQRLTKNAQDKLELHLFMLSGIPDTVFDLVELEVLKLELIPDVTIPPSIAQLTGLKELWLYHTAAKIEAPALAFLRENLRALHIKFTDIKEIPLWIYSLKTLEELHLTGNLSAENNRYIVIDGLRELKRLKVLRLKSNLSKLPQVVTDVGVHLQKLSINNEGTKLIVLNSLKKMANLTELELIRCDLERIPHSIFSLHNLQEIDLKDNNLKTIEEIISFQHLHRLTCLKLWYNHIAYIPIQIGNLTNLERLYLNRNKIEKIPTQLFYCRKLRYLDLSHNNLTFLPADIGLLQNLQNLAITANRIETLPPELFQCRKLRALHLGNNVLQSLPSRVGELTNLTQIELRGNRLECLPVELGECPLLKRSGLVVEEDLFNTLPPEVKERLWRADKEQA", "assay": "ICl,SWELL inhibition after hypotonic activation (open channel), patch-clamp", "assay_type": "cell-based", "conditions": "HEK-293 cells; for IC50: hypotonic (210 mOsm) stimulation, outward current, compound applied at 30 pA/pF, read-out: IC50 for ICl,SWELL inhibition", "protocol": "Patch-clamp recordings of β-cells, 3T3-F442A adipocytes, and mature human adipocytes were performed as described previously[24],[28]. Briefly, all patch-clamp experiments were conducted at room temperature using either an Axopatch 200B amplifier or a MultiClamp 700B amplifier paired to a Digidata 1550 digitizer. Data were acquired using pClamp 10.4 software. For hypotonic swelling, extracellular solution consisted of the following (in mM): 90 NaCl, 2 CsCl, 1 MgCl2, 1 CaCl2, 10 HEPES, 10 mannitol, pH 7.4 with NaOH (210 mOsm/kg). The isotonic extracellular solution consisted of the same composition above but with 110 mM instead of 10 mM mannitol (300 mOsm/kg). The swell-activated current was elicited by perfusing cells with a hypotonic solution (210 mOsm/kg). […] For perforated-patch recordings in isolated human adipocytes, the intracellular solution was as above but without ATP and GTP, and contained 360 μg/ml Amphotericin B (Sigma). The holding potential was 0 mV. Voltage ramps from −100 to +100 mV (at 0.4 mV/ms) were applied every 4 s. The sampling interval was 100 μs and filtered at 10 kHz. For perforated-patch recordings, cells with a membrane resistance below 1 GΩ or access resistance above 20 MΩ were discarded. […]"}, "[2]": {"system": "T2, SWELL1 protein in 3T3-F442A adipocytes", "T2 construct": "host or cells: 3T3-F442A preadipocytes and differentiated adipocytes (wild type)", "assay": "SWELL1 protein western blot in adipocytes", "assay_type": "cell-based, murine", "conditions": "10 and 1 μM, 4 days, then 6 h serum starving", "protocol": "(§1) In the case of 3T3-F442A adipocytes, the WT and KO cells were treated with either vehicle (DMSO), 1 or 10 µM SN-40X (after 7–11 days of differentiation) for 96 h and then stimulated with 0 and 10 nM insulin/serum-containing media with vehicle (DMSO) or SN-40X for 15 min for SWELL1 detection. […] To simulate glucolipotoxicity, 8 mM sodium palmitate was dissolved in 18.4% fatty-acid free BSA at 37 °C in DMEM medium with 25 mM glucose to obtain a conjugation ratio of 1:3 palmitate:BSA[80].\nAdipocytes were washed twice in ice-cold phosphate buffer saline and lysed in RIPA buffer (150 mM NaCl, 20 mM HEPES, 1% NP-40, 5 mM EDTA, pH 7.4) with proteinase/phosphatase inhibitors (Roche). The cell lysate was further sonicated in 10 s cycle intervals 2–3 times and centrifuged at 18,407×g for 30 min at 4 °C and repeated one more time to remove the excess fat. The supernatant was collected and further estimated for protein concentration using a DC protein assay kit (Bio-Rad). Fat and liver tissues were homogenized and suspended in RIPA buffer with inhibitors and further processed in a similar fashion as described above. HUVECs were also prepared in a similar fashion except the lysates were spun only once to remove the cells debris to obtain the clear supernatant. For islets, either human or mouse islets were washed twice with phosphate buffer saline (PBS) and lysed using RIPA buffer containing protease and phosphatase inhibitors. The lysate was further clarified by freezing in liquid nitrogen for about 10 s for three cycles. The supernatant was collected from the whole lysate centrifuged at 16,260×g for 20 min at 4 °C. […] For soleus muscle, the tissue was homogenized in a Bullet Blender homogenizer (Speed-9, Time-3 mins) in 8 volumes of ice-cold muscle homogenization buffer (50 mM Tris, 25 mM NaCl, 0.2% Nonidet P-40, 5 mM EGTA, 2.5 mM EDTA, 20 mM NaF, 20 mM Na4P2O7·10H2O, 2 mM Na3VO4, pH 7.4) supplemented with protease/phosphatase inhibitor (Roche). The homogenized lysate was centrifuged two times at 18,500×g for 20 min at 4 °C and supernatant was collected for protein estimation. Protein samples were further prepared by boiling in 2X or 4X Laemmli buffer. Approximately 10–60 µg of total protein was loaded in 4–15% gradient gel (Bio-Rad) for separation and protein transfer was carried out onto the PVDF membranes (Bio-Rad). Membranes were blocked in 5% BSA (or 5% milk for SWELL1) in TBST buffer (0.2 M Tris, 1.37 M NaCl, 0.2% Tween-20, pH 7.4) for 1 h and incubated with appropriate primary antibodies (5% BSA or milk) overnight at 4 °C. […] The images were further analyzed for band intensities using ImageJ software. […]"}, "[3]": {"system": "T2, SWELL1 protein in 3T3-F442A adipocytes", "assay": "SWELL1 protein under glucolipotoxic stress (palmitate + glucose)", "assay_type": "cell-based, murine", "conditions": "10 µM 96 h pretreatment, then 1 mM palmitate + 25 mM glucose 16 h", "protocol": "as §1"}, "T2D and non-T2D mice": {"system": "T2D and non-T2D mice", "assay": "Metabolic phenotyping: fasting glucose, GTT, ITT", "conditions": "compared to Inactive 1", "protocol": "All compounds were dissolved in Kolliphor® EL (Sigma, #C5135).\n(§2) Mice were fasted for 6 h prior to glucose tolerance tests (GTT). Baseline glucose levels at 0 min timepoint (fasting glucose, FG) were measured from a blood sample collected from tail snipping using glucometer (Bayer Healthcare LLC). Either 1 or 0.75 g D-Glucose/kg body weight were injected (i.p.) for lean or HFD mice, respectively and glucose levels were measured at 5 or 7, 15, 30, 60, 90, and 120 min timepoints after injection. For insulin tolerance tests (ITTs), the mice were fasted for 4 h. Similar to GTTs, the baseline blood glucose levels were measured at 0 min timepoint and 15, 30, 60, 90, and 120 min timepoints post-injection (i.p.) of insulin (HumulinR, 1 U/kg bodyweight for lean mice or 1.25 U/kg body weight for HFD mice). […] The collected plasma was then measured for insulin content by using Ultra-Sensitive Mouse Insulin ELISA Kit (Crystal Chem, #90080). All mouse studies were performed in a blinded fashion."}, "[4]": {"biological_target": "T3, R103E-SWELL1 expressing HEK-293 cells (R103E O/E) (Homo sapiens, UniProt Q8IWT6, R103E)", "T3 construct": "P2A:EGFP (C); host or cells: HEK-293, Lipofectamine 2000, co-transfected with CMV-Cre; EGFP+ cells recorded", "T3 sequence (Q8IWT6 whole entry R103E)": "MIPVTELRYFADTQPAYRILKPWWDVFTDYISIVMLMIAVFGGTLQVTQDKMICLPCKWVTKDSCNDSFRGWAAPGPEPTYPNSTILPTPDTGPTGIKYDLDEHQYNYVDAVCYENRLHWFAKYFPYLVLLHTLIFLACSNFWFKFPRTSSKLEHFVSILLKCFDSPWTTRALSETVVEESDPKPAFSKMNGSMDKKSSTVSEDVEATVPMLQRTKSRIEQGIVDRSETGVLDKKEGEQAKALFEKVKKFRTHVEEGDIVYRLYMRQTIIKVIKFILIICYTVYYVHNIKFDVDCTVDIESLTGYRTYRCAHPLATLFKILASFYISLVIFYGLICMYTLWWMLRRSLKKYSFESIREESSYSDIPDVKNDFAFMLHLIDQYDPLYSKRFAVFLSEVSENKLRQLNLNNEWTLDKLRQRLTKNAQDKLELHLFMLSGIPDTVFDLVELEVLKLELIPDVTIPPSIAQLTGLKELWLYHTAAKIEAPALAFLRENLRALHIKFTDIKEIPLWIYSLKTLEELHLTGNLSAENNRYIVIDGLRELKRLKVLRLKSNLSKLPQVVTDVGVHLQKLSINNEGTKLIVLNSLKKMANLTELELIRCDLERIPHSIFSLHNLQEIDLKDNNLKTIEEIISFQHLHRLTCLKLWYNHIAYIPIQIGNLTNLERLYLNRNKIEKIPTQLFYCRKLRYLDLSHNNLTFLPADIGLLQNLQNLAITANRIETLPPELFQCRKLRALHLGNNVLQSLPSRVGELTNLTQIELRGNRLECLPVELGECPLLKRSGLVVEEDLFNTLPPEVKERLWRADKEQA", "assay": "ICl,SWELL inhibition in SWELL1-R103E overexpressing cells, patch-clamp", "assay_type": "cell-based", "conditions": "R103E-SWELL1 overexpressing HEK-293 cells, compound applied at maximum current density; read-out: IC50 for ICl,SWELL inhibition, R103E O/E", "excerpt": "See also Fig. 6 for a schematic representation. […] For SWELL1-R103E overexpression experiments, HEK-293 cells were transfected with either control Cre plasmid (CMV-Cre, McDonnell Genome Institute in Washington University in St. Louis) or Cre plus R103E-GFP (CAG-LoxP-stop-LoxP-SWELL1-R103E/3XFlag:P2A:EGFP, Vector Biolabs) plasmid using Lipofectamine 2000 as per the manufacturer’s protocol. SWELL1-R103E expressing HEK-293 cells were identified by EGFP + fluorescence."}, "[5]": {"system": "pancreatic islets of T2D mice", "assay": "Insulin secretion of treated T2D mice (serum insulin, islet perifusion GSIS)", "assay_type": "in vivo, mouse", "conditions": "islets of T2D KKAy mice, compared to Inactive 1", "protocol": "as §2"}, "[6]": {"biological_target": "Mus musculus SWELL1 (LRRC8a, leucine-rich repeat-containing protein 8a) (Mus musculus)", "assay": "cryo-EM structure; SWELL1 in MSP1E3D1 lipid nanodiscs (2:1:1 DOPE:POPC:POPS), 1 mg/mL SWELL1-MSP1E3D1 with 100 µM SN-407; 20 mM HEPES, 150 mM KCl, pH 7.4; C6 refinement, then symmetry expansion and relaxation"}, "[7]": {"conditions": "8 weeks HFD mice, 5 mg/kg/day × 4 days"}},
  "data": [
    {"molecule": "O=C(O)CCCOc1cc2c(c(Cl)c1Cl)C(=O)C(C1CCCC1)C2", "note": "(stereo not shown) [Inactive 2, 4-((6,7-dichloro-2-cyclopentyl-1-oxo-2,3-dihydro-1H-inden-5-yl)oxy)butanoic acid]", "values": [
      {"measurement": "IC50", "setting": "[1]", "result": 10.6, "unit": "µM"},
      {"measurement": "SWELL1 protein level relative to vehicle-treated controls", "setting": "[2]", "result": "did not significantly increase"},
      {"measurement": "prevention of palmitate/glucose-induced reduction of SWELL1 protein", "setting": "[3]", "result": "not"}
    ]},
    {"molecule": "CCCCC1(C2CCCC2)Cc2cc(OCCCB(O)O)c(Cl)c(Cl)c2C1=O", "note": "(stereo not shown) [Inactive 3, (3-((2-butyl-6,7-dichloro-2-cyclopentyl-1-oxo-2,3-dihydro-1H-inden-5-yl)oxy)propyl)boronic acid]", "values": [
      {"measurement": "IC50", "setting": "[1]", "result": 18.3, "unit": "µM"}
    ]},
    {"molecule": "CCCCC1(C2CCCC2)Cc2cc(OCCCCC(=O)O)c(Cl)c(Cl)c2C1=O", "note": "(stereo not shown) [SN-403, 5-((2-butyl-6,7-dichloro-2-cyclopentyl-1-oxo-2,3-dihydro-1H-inden-5-yl)oxy)pentanoic acid]", "values": [
      {"measurement": "ICl,SWELL inhibitory activity compared to SN-401", "setting": "[1]", "result": "increased ICl,SWELL inhibitory activity"},
      {"measurement": "fasting blood glucose", "setting": "T2D and non-T2D mice; [7]", "result": "significantly reduced"},
      {"measurement": "glucose tolerance", "setting": "T2D and non-T2D mice; [7]", "result": "improved"}
    ]},
    {"molecule": "CCCCC1(C2CCCC2)Cc2cc(OCCCCCCC(=O)O)c(Cl)c(Cl)c2C1=O", "note": "(stereo not shown) [SN-407, 7-((2-butyl-6,7-dichloro-2-cyclopentyl-1-oxo-2,3-dihydro-1H-inden-5-yl)oxy)heptanoic acid]", "values": [
      {"measurement": "ICl,SWELL inhibitory activity compared to SN-401", "setting": "[1]", "result": "increased ICl,SWELL inhibitory activity"},
      {"measurement": "IC50", "setting": "[1]", "result": 1.6, "unit": "µM"},
      {"measurement": "IC50", "setting": "[4]", "result": 4.2, "unit": "µM"},
      {"measurement": "glucose tolerance (GTT AUC)", "setting": "T2D and non-T2D mice; T2D KKAy mice, 5 mg/kg i.p. 4 days", "result": "improved"},
      {"measurement": "GSIS", "setting": "[5]", "result": "increased"}
    ]},
    {"molecule": "Mus musculus SWELL1 (LRRC8a, leucine-rich repeat-containing protein 8a) (natural protein)", "values": [
      {"measurement": "stoichiometry N", "setting": "[6]", "result": 6}
    ]}
  ]
}
